Measured values: patent publication US20230194511A1, “Compound Fixing Method, Detection Method, Screening Method, Substrate Used in Same, Compound Fixing Agent, and Fixing Kit” (priority 2020, published 2023)

How the values were obtained:
[1] = tested on: anti-prostaglandin E2 antibody; test: Prostaglandin-HSA compound microarray, detection with anti-prostaglandin E2 antibody (Example 5); format: binding; settings: prostaglandin mixed with HSA 0.1 milligram/milliliter, printed on glass slide
Method: The immobilization of prostaglandins, which are bioactive lipids, was verified. In this example, as the prostaglandins, prostaglandins A1, A2, A3, B1, B2, B3, D1, D2, D3, E1, E2, E3, F1a, F2a, F3a, G2, H1, H2, I2, I3, J2, K1, and K2 were used. The prostaglandins were mixed with HSA in the solvents and at the final concentrations shown in the table below to form prostaglandin and HSA complexes. It should be noted that HSA was added to achieve a final concentration of 0.1 milligram/milliliter.
Solutions including each prepared prostaglandin and HSA were spotted and printed on glass slides as microdroplets of approximately 2 to 4 nl by using an ultratrace dispensing system (Micro Diagnostic).
(§1) The compound microarrays printed with the prostaglandins were immersed in ethanol and shaken for 30 seconds at room temperature. Subsequently, the compound microarrays were immersed in ultrapure water and shaken for 30 seconds at 26° C. The shaking by ultrapure water was performed twice. For solution replacement, the compound microarrays were immersed in solution A for protein microarrays only (Fukushima Protein Factory, Fukushima, Japan) and shaken for about five minutes at 26° C.
(§2) The compound microarrays treated as described above were immersed in Blocking One (Nacalai Tesque, Kyoto, Japan) and shaken for one hour at 26° C. Subsequently, the compound microarrays were immersed in solution A for protein microarrays only and shaken for about five minutes at 26° C.
(§3) Using a solution obtained by adding 1/4000 volume of Goat Reference Antibody Mixture I (Fukushima Protein Factory) to the primary antibody diluent for protein microarrays only (Fukushima Protein Factory), an anti-prostaglandin E2 antibody (Ab00484-23.0, Absolute Antibody) was diluted to 1 microgram/milliliter.
(§4) Two milliliters of the solution with the diluted primary antibody were added to a P-DE1 cassette for protein microarrays (Fukushima Protein Factory). […]

[2] = tested on: anti-amoxicillin antibodies; test: Compound microarray, detection of immobilized compound with anti-amoxicillin antibodies; format: binding, mouse; settings: concentrations of HSA from 0.5 mM to 0.0005 mM, glass slide
Method: (§5) Further, compounds of bovine serum albumin (BSA) covalently bonded to these 14 compounds in advance (Imgen BioSciences) were printed on glass slides as control samples for comparison. The compounds mixed with HSA were each dissolved in solution A for protein microarrays only (Fukushima Protein Factory) to a concentration of 0.5 mM. Furthermore, HSA was prepared and mixed with the solutions A including the compounds, bringing the final concentrations to 0.1 micrograms/microliter. It should be noted that the printing of each compound on a glass slide was performed by spotting microdroplets of approximately 2 to 4 nl on the glass slide by using an ultratrace dispensing system (Micro Diagnostic).
as §1, with “the compounds” for “the prostaglandins”, “C. It should be noted that the” for “C. The”
as §2
as §3, with “one of eight mouse monoclonal anti-compound antibodies (Table 2)” for “an anti-prostaglandin E2 antibody (Ab00484-23.0, Absolute Antibody)”
as §4

[3] = tested on: anti-ampicillin antibodies; test: Compound microarray, detection of immobilized compound with anti-ampicillin antibodies; format: binding, mouse; settings: compound 0.5 mM mixed with HSA 0.1 micrograms/microliter, printed on glass slide
Description: as §5, with “Fourteen compounds (amoxicillin, ampicillin, apramycin, bacitracin, cefalexin, ceftazidime, cloxacillin, gentamicin, hygromycin B, neomycin, penicillin G, streptomycin, sulfadimidine, and tetracycline) were each mixed with human serum albumin (HSA) (Sigma-Aldrich) and printed on glass slides. Further,” for “Further,”
(§6) The compound microarrays printed with the compounds were immersed in ethanol and shaken for 30 seconds at room temperature. Subsequently, the compound microarrays were immersed in ultrapure water and shaken for 30 seconds at 26° C. […]
(§7) The compound microarrays were dried, centrifuged at 1500 rpm for one minute, and scanned for fluorescence intensity using a GenePix 4000B (Molecular Devices, Calif., USA). […]

[4] = tested on: anti-penicillin antibodies; test: Compound microarray, detection with anti-penicillin antibodies (Examples 3 and 4, clone not stated); format: binding; settings: concentrations of HSA from 0.5 mM to 0.0005 mM, glass slide
[5] = tested on: anti-penicillin [P2B9] antibodies; test: Compound microarray, detection of immobilized compound with anti-penicillin [P2B9] antibodies; format: binding, mouse; settings: compound mixed with HSA, printed on glass slide
Description: as §5, with “Fourteen compounds (amoxicillin, ampicillin, apramycin, bacitracin, cefalexin, ceftazidime, cloxacillin, gentamicin, hygromycin B, neomycin, penicillin G, streptomycin, sulfadimidine, and tetracycline) were each mixed with human serum albumin (HSA) (Sigma-Aldrich) and printed on glass slides. Further,” for “Further,”
as §6, §7

[6] = tested on: anti-dihydrosterptomycin [1.BB.891]; test: Compound microarray, detection of immobilized compound with anti-dihydrostreptomycin antibody [1.BB.891]; format: binding, mouse; settings: compound mixed with HSA, printed on glass slide
Description: as §5, with “Fourteen compounds (amoxicillin, ampicillin, apramycin, bacitracin, cefalexin, ceftazidime, cloxacillin, gentamicin, hygromycin B, neomycin, penicillin G, streptomycin, sulfadimidine, and tetracycline) were each mixed with human serum albumin (HSA) (Sigma-Aldrich) and printed on glass slides. Further,” for “Further,”
as §6, §7

[7] = tested on: streptomycin/dihydrostreptomycin [CH-2013]; test: Compound microarray, detection of immobilized compound with streptomycin/dihydrostreptomycin antibody [CH-2013]; format: binding, mouse; settings: compound mixed with HSA, printed on glass slide
Description: as §5, with “Fourteen compounds (amoxicillin, ampicillin, apramycin, bacitracin, cefalexin, ceftazidime, cloxacillin, gentamicin, hygromycin B, neomycin, penicillin G, streptomycin, sulfadimidine, and tetracycline) were each mixed with human serum albumin (HSA) (Sigma-Aldrich) and printed on glass slides. Further,” for “Further,”
as §6, §7

[8] = tested on: anti-streptomycin antibodies; test: Compound microarray, detection of immobilized compound with anti-streptomycin antibodies; format: binding, mouse; settings: compound mixed with HSA, printed on glass slide
Description: as §5, with “Fourteen compounds (amoxicillin, ampicillin, apramycin, bacitracin, cefalexin, ceftazidime, cloxacillin, gentamicin, hygromycin B, neomycin, penicillin G, streptomycin, sulfadimidine, and tetracycline) were each mixed with human serum albumin (HSA) (Sigma-Aldrich) and printed on glass slides. Further,” for “Further,”
as §6, §7

[9] = tested on: anti-gentamycin antibodies; test: Compound microarray, detection of immobilized compound with anti-gentamycin antibodies; format: binding, mouse
Method: as §5
as §1, with “the compounds” for “the prostaglandins”, “C. It should be noted that the” for “C. The”
The compound microarrays treated as described above were immersed in Blocking One (Nacalai Tesque, Kyoto, Japan) and shaken for one hour at 26° C. […]

## CCCCC[C@H](O)/C=C/[C@H]1[C@H](O)CC(=O)[C@@H]1C/C=C\CCCC(=O)O [Prostaglandin E2]
[1]
  reaction of the anti-prostaglandin E2 antibody (fluorescence intensity): reacted strongly

## CC/C=C\C[C@H](O)/C=C/[C@H]1[C@H](O)CC(=O)[C@@H]1C/C=C\CCCC(=O)O [Prostaglandin E3]
[1]
  reaction of the anti-prostaglandin E2 antibody (fluorescence intensity): reacted strongly

## CCCCC[C@H](O)/C=C/[C@@H]1[C@H]2C/C(=C/CCCC(=O)O)O[C@H]2C[C@H]1O [Prostaglandin I2]
[1]
  reaction of the anti-prostaglandin E2 antibody (fluorescence intensity): reacted strongly

## CC1(C)S[C@@H]2[C@H](NC(=O)[C@H](N)c3ccc(O)cc3)C(=O)N2[C@H]1C(=O)[O-].[Na+] [amoxicillin sodium]
[2]
  concentration of HSA at which the strongest signal was detected: 0.05 mM
  signal intensity versus HSA concentration: tended to be concentration-dependent

## CC1(C)S[C@@H]2[C@H](NC(=O)[C@H](N)c3ccc(O)cc3)C(=O)N2[C@H]1C(=O)O [amoxicillin]
[2]
  signal intensity versus HSA concentration: increased in an HSA concentration-dependence

## CC1(C)S[C@@H]2[C@H](NC(=O)[C@H](N)c3ccccc3)C(=O)N2[C@H]1C(=O)O [ampicillin]
[3]
  signal (Red Intensity): strong signal (strong signals (red intensity of 2000 or greater; the same below))

## CC1(C)S[C@@H]2[C@H](NC(=O)Cc3ccccc3)C(=O)N2[C@H]1C(=O)[O-].[Na+] [penicillin G sodium]
[4]
  signal intensity versus HSA concentration: increased in an HSA concentration-dependence

## CC1(C)S[C@@H]2[C@H](NC(=O)Cc3ccccc3)C(=O)N2[C@H]1C(=O)O [penicillin G]
[5]
  signal (Red Intensity): weak signal

## [H]/N=C(/N)N[C@H]1[C@H](O)[C@@H](O)[C@H](O[C@@H]2O[C@@H](C)[C@](O)(C=O)[C@H]2O[C@@H]2O[C@@H](CO)[C@H](O)[C@@H](O)[C@@H]2NC)[C@@H](N/C(N)=N\[H])[C@@H]1O [streptomycin]
[6]
  signal (Red Intensity): weak signal
[7]
  signal (Red Intensity): weak signal
[8]
  signal (Red Intensity): weak signal

## gentamycin sulfate
[9]; compound 0.5 mM mixed with each immobilizing protein or HSA (0.1 micrograms/microliter), strong only with this antibody
  signal (red intensity): strong signal (strong signals (red intensity of 2000 or greater; the same below))
[9]; concentrations of HSA from 0.5 mM to 0.0005 mM, glass slide
  signal intensity versus HSA concentration: increased in an HSA concentration-dependence
